Results: US5350768A, “Derivatives of cysteine” (priority 1987, dated 1994)
Read-outs that look alike come from different tables or passages of the source.

Legend:
[1] = Plasma thiol concentrations after intraintestinal injection in anaesthetized rats
Method: (§1) Therefore, experiments were performed to investigate biological stability and bioavailability of the compounds of formula I, and to compare these with N-acetyl-L-cysteine.
The thiols were injected into the intestines of anaesthetized rats. At various times after the injections blood samples were withdrawn, and plasma thiols analyzed. […] The values given represent mean±SEM, unless otherwise stated.

[2] = Method: as §1
[3] = Plasma concentrations and urinary excretion in healthy human volunteers after oral intake
Method: as §1
Plasma concentrations and urinary excretion in helthy human volunteers were measured after oral intake of N-acetyl-L-cysteine, and N-isobutyryl-L-cysteine, 1.23 mmole of each.

## CC(C)(C)C(=O)N[C@@H](CS)C(=O)O [N-pivaloyl-L-cysteine]
[1]; rat, in vivo
  concentration: 11.8 µM
[2]
  biological stability (in words): much more biologically stable
  hydrolysis in homogenates: not hydrolyzed to any measureable extent

## CC(C)C(=O)N[C@@H](CS)C(=O)O [N-isobutyryl-L-cysteine]
[1]; rat, in vivo
  concentration: 13 ± 2.9 µM
  plasma level after intraintestinal injection (in words): reached considerable concentrations
[2]
  biological stability (in words): much more biologically stable
[3]; human, in vivo, po
  bioavailability / plasma levels after oral intake (in words): reached high concentrations in plasma

## CC(=O)N[C@@H](CS)C(=O)O [N-acetyl-L-cysteine, reference compound]
[1]; rat, in vivo
  plasma level after intraintestinal injection (in words): barely detectable in plasma
[1]; read-out: concentrations of the thiols in plasma, after injection into intestines of anaesthetized rats, only one experiment performed
  concentration: 0.7 µM
[2]
  biological stability (in words): biologically unstable
[3]; human, in vivo, po, 1.23 mmol
  Cmax: < 1 µM
[3]; oral intake
  bioavailability / plasma levels after oral intake (in words): poor bioavailability
